We go through 37 molecules from ChEMBL document CHEMBL1153630, “Structure-activity relationship (SAR) of parthenin analogues with pro-apoptotic activity: Development of novel anti-cancer leads” (Bioorg Med Chem Lett, 2009).

Active and inactive are the calls of the source. The calls are words filed in the database; no cut-off is given here.

The test system of test [1] is HeLa. The test is described as follows: Cytotoxicity against human HeLa cells after 48 hrs by MTT assay. In kind it is functional, cell-based.
The test system of test [2] is HL-60. In words: Induction of apoptosis in human HL60 cells assessed as DNA population at sub G0/G1 phase at 10 uM after 6 hrs by flow cytometry. In kind it is functional.
The subject of test [3] is HL-60. In words: Cytotoxicity against human HL60 cells after 48 hrs by MTT assay. In kind it is functional, cell-based. To be noted: HL-60, 48 h. A general note: Tetrazolium dyes change colour on reduction, which living cells bring about.
The target in test [4] is DNA topoisomerase 2-alpha (Homo sapiens) (UniProt P11388). The test is described as follows: Inhibition of human topoisomerase 2-mediated relaxation of supercoiled plasmid DNA at 10 uM after 1 hr by electrophoresis analysis.
DNA topoisomerase 2-alpha (Homo sapiens), sequence (P11388 whole entry): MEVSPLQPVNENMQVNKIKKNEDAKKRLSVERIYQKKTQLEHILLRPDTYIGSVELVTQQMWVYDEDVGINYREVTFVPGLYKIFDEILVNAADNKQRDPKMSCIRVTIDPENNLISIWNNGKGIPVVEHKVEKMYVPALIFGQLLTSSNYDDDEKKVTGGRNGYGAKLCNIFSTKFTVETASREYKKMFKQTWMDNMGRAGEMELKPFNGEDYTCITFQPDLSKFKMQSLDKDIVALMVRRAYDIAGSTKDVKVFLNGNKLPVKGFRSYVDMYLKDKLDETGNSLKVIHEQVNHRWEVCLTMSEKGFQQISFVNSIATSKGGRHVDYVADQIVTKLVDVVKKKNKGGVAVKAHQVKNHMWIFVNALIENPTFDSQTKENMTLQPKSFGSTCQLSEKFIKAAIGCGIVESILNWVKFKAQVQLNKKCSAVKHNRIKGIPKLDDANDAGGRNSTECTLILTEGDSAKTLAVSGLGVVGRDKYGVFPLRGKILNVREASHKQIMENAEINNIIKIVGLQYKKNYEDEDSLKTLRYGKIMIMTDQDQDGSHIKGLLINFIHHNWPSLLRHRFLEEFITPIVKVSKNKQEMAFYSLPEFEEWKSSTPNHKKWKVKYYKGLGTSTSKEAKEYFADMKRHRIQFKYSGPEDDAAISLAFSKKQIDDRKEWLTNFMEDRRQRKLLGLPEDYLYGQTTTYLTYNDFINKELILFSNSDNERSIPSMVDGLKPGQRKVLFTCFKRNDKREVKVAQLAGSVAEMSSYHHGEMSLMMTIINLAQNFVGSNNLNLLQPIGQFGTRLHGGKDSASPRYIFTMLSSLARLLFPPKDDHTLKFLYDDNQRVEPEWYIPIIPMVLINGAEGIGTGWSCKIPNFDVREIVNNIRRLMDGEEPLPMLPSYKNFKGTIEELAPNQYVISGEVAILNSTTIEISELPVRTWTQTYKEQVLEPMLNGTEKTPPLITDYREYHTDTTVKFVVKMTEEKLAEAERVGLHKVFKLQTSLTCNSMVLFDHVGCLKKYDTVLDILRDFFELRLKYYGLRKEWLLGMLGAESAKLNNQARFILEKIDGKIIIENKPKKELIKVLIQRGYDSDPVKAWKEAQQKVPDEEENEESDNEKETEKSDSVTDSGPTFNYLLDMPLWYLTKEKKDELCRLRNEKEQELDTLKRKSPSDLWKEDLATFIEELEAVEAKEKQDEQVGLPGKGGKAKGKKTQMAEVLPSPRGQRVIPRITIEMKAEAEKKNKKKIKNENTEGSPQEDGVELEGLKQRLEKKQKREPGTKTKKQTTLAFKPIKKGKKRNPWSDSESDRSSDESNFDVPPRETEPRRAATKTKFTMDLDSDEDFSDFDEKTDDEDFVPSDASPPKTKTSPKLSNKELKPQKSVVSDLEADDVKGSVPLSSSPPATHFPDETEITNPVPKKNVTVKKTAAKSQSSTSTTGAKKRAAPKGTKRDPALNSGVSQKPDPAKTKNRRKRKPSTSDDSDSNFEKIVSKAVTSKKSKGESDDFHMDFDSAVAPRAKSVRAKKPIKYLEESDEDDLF
For test [5], the system named is HL-60. In words: Inhibition of telomerase expression in human HL60 cells at 10 uM after 6 hrs by Western blot analysis. In kind it is functional. To be noted: HL-60, 6 h. For orientation: Immunoblotting shows a protein as a band on a membrane.
The target of test [6] is DNA topoisomerase 2-alpha (Homo sapiens) (UniProt P11388). The test is described as follows: Inhibition of human topoisomerase 2-mediated relaxation of supercoiled plasmid DNA at 100 uM after 1 hr by electrophoresis analysis.

What is called IC50 is the midpoint of a concentration-inhibition curve. Higher therefore signals a need for much substance. With `C=C1C(=O)O[C@@H]2[C@H]1CC[C@H](C)[C@]1(O)C=C(C(O)c3ccccc3)C(=O)[C@@]21C` (some centres undefined), the results for the IC50 in test [1] and in test [3] were 58 µM and 9 µM, respectively. The Activity in test [2] turned out to be 13.89%.

Consider `C=C1C(=O)O[C@@H]2[C@H]1CC[C@H](C)[C@]1(O)[C@H](OCC)CC(=O)[C@@]21C`, for which the figures for the IC50 in test [1] and in test [3] were 76 µM and 60 µM, respectively. Further, the Activity in test [2] is reported as 4.51%.

As to `C=C1C(=O)O[C@@H]2[C@H]1CC[C@H](C)[C@]1(O)[C@H](OCCC)CC(=O)[C@@]21C`, the figures for the IC50 in test [1] and in test [3] were 74 µM and 18 µM, respectively. Moreover, in test [2], the Activity stood at 3.21%.

Consider `C=C1C(=O)O[C@@H]2[C@H]1CC[C@H](C)[C@]1(O)[C@@H](O)/C(=C/c3ccc(Cl)cc3)C(=O)[C@@]21C`, for which the figures for the IC50 in test [1] and in test [3] were 44 µM and 9 µM, respectively. Also, the Activity in test [2] was determined as 19.38%.

On to `CC(=O)OC1C=C[C@@]2(O)[C@@H](C)CC[C@H]3C(C)C(=O)O[C@H]3[C@]12C` (some centres undefined), for which the IC50 in test [1] was determined as 74 µM; in test [3], 48 µM. Further, in test [2], the Activity turned out to be 0.82%.

`C=C1C(=O)O[C@@H]2[C@H]1CC[C@H](C)[C@]13OC(C)O[C@H]1CC(=O)[C@@]23C` (some centres undefined): the IC50 in test [1] is 70 µM; in test [3], 41 µM. The Activity in test [2] amounted to 1.9%.

Consider `C[C@H]1CC[C@@H]2[C@@H](OC(=O)C2(Br)CBr)[C@]2(C)C(=O)C(Br)=C[C@@]12O` (some centres undefined), for which the half-inhibitory concentration (IC50) in test [1] stood at 76 µM; in test [3], 13 µM. Further, the Activity in test [2] was found to be 2.17%.

On to `C=C1C(=O)O[C@@H]2[C@H]1CC[C@H](C)[C@]1(O)C=CC(=O)[C@@]21C` [PARTHENIN], for which the half-maximal inhibitory concentration (IC50) in test [1] is 60 µM; in test [3] it was 17 µM. The Activity in test [2] was determined as 13.69%.

Turning to `C=C1C(=O)O[C@@H]2[C@H]1CC[C@H](C)[C@]1(O)C=C(/C=C/CC)C(=O)[C@@]21C`, the IC50 is 73 µM in test [1] and 45 µM in test [3]. Besides, the Activity in test [2] was 1.6%.

On to `C=C1C(=O)O[C@@H]2[C@H]1CC[C@H](C)[C@]1(O)C=C(/C=C/CCC)C(=O)[C@@]21C`, for which the IC50 was found to be 68 µM in test [1] and 42 µM in test [3]. In test [2], the Activity came to 2.33%.

Turning to `C[C@H]1CC[C@@H]2[C@@H](OC(=O)C2(Br)CBr)[C@]2(C)C(=O)C(Br)C(Br)[C@@]12O` (some centres undefined), the IC50 in test [1] was determined as 61 µM; in test [3] it was 8 µM. Further, the Activity in test [2] amounted to 18.33%.

As for `C=C1C(=O)O[C@@H]2[C@H]1CC[C@H](C)[C@]1(O)C=C(C(O)c3ccc(Cl)cc3)C(=O)[C@@]21C` (some centres undefined), the values for the IC50 in test [1] and in test [3] were 70 µM and 17 µM, respectively. Further, the Activity in test [2] came out at 2.76%.

On to `C[C@H]1CC[C@H]2[C@H](COCCO)C(=O)O[C@H]2[C@]2(C)C(=O)C[C@@H](OCCO)[C@@]12O`, for which the IC50 in test [1] turned out to be 72 µM; in test [3], 55 µM. Further, the Activity in test [2] is 2.19%.

In the case of `C=C1C(=O)O[C@@H]2[C@H]1CC[C@H](C)[C@]1(O)[C@H](OCCO)CC(=O)[C@@]21C`, the results for the half-maximal inhibitory concentration (IC50) in test [1] and in test [3] were 72 µM and 44 µM, respectively. For the same molecule, the Activity in test [2] is on record as 1.81%.

For the molecule `C=C1C(=O)O[C@@H]2[C@H]1CC[C@H](C)[C@]13OC(CC)O[C@H]1CC(=O)[C@@]23C` (some centres undefined), the IC50 in test [1] worked out at 65 µM; in test [3], 38 µM. The Activity in test [2] stood at 2.71%.

`C=C1C(=O)O[C@@H]2[C@H]1CC[C@H](C)[C@]13OC(c4ccc5c(c4)OCO5)O[C@H]1/C(=C/c1ccc4c(c1)OCO4)C(=O)[C@@]23C` (some centres undefined): the IC50 in test [1] was determined as 57 µM; in test [3], 5 µM. Moreover, the Activity in test [2] was found to be 58.75%.

On to `C=C1C(=O)O[C@@H]2[C@H]1CC[C@H](C)[C@]1(O)C=C(C(O)c3ccc4c(c3)OCO4)C(=O)[C@@]21C` (some centres undefined), for which the concentration for half-maximal inhibition (IC50) in test [1] stood at 73 µM; in test [3] it was 18 µM. For the same molecule, in test [2], the Activity stood at 2.13%.

Consider `CC1C(=O)O[C@@H]2[C@H]1CC[C@H](C)[C@]1(O)C=CC(O)[C@@]21C` (some centres undefined), for which the IC50 in test [1] amounted to 64 µM; in test [3], 48 µM. Also, the Activity in test [2] is 1.43%.

In the case of `C[C@H]1CC[C@@H]2[C@@H](OC(=O)C2(O)CBr)[C@]2(C)C(=O)C=C[C@@]12O` (some centres undefined), the 50% inhibitory concentration (IC50) in test [1] worked out at 64 µM; in test [3], 12 µM. Moreover, in test [2], the Activity was 3.25%.

`C=C1C(=O)O[C@@H]2[C@H]1CC[C@H](C)[C@]13OC(Cc4ccco4)O[C@H]1/C(=C/Cc1ccco1)C(=O)[C@@]23C` (some centres undefined): the IC50 in test [1] worked out at 68 µM; in test [3], 5 µM. Also, the Activity in test [2] was 42.38%.

For the molecule `C=C1C(=O)O[C@@H]2[C@H]1CC[C@H](C)[C@]1(O)C=C(/C=C/CCCCC)C(=O)[C@@]21C`, the figures for the IC50 in test [1] and in test [3] were 47 µM and 24 µM, respectively. For the same molecule, the Activity in test [2] stood at 6.78%.

For `C[C@H]1CC[C@@H]2[C@@H](OC(=O)C2(Br)CBr)[C@]2(C)C(=O)C=C[C@@]12O` (some centres undefined), the figures for the IC50 in test [1] and in test [3] were 67 µM and 12 µM, respectively. The Activity in test [2] amounted to 1.93%.

Regarding `C=C1C(=O)O[C@@H]2[C@H]1CC[C@H](C)[C@]13OC(c4ccc(OC)cc4)O[C@H]1/C(=C/c1ccc(OC)cc1)C(=O)[C@@]23C` (some centres undefined), the figures for the IC50 in test [1] and in test [3] were 72 µM and 46 µM, respectively. Besides, the Activity in test [2] was 2.17%.

In the case of `C[C@H]1CC[C@H]2[C@H](COCCO)C(=O)O[C@H]2[C@]2(C)C(=O)C=C[C@@]12O`, the IC50 in test [1] worked out at 76 µM; in test [3], 44 µM. In test [2], the Activity worked out at 2.05%.

With `C=C1C(=O)O[C@@H]2[C@H]1CC[C@H](C)[C@]1(O)[C@H](OC)CC(=O)[C@@]21C`, the results for the half-inhibitory concentration (IC50) in test [1] and in test [3] were 68 µM and 32 µM, respectively. For the same molecule, the Activity in test [2] is given as 1.95%.

In the case of `C=C1C(=O)O[C@@H]2[C@H]1CCC(C)=C1C=CC(=O)[C@]12C`, the half-maximal inhibitory concentration (IC50) in test [1] stood at 74 µM; in test [3] it was 16 µM. The Activity in test [2] was 2.95%.

As to `C=C1C(=O)O[C@@H]2[C@H]1CC[C@H](C)[C@]1(O)[C@H](OCCCC)CC(=O)[C@@]21C`, the concentration for half-maximal inhibition (IC50) in test [1] turned out to be 70 µM; in test [3], 42 µM. Further, in test [2], the Activity was determined as 1.9%.

As for `C=C1C(=O)O[C@@H]2[C@H]1CC[C@H](C)[C@]1(O)C=CC(=O)O[C@@]21C`, the IC50 came out at 67 µM in test [1] and 18 µM in test [3]. For the same molecule, the Activity in test [2] is 2.98%.

Broadly, the inhibition is the percentage by which the read-out fell short of the control. As for `C=C1C(=O)O[C@@H]2[C@H]1CC[C@H](C)[C@]13OC(c4ccc(Cl)cc4)O[C@H]1/C(=C/c1ccc(Cl)cc1)C(=O)[C@@]23C` (some centres undefined), the values for the IC50 in test [1] and in test [3] were 12 µM and 3 µM, respectively. Moreover, the Activity in test [2] is recorded as 94.1%. The inhibition result in test [4] and in test [6] was “Active” throughout. Besides, the inhibition at 10 µM in test [5] came to 80%.

Regarding `C=C1C(=O)O[C@@H]2[C@H]1CC[C@H](C)[C@]13OC(/C=C/c4ccccc4)O[C@H]1/C(=C/C=C/c1ccccc1)C(=O)[C@@]23C` (some centres undefined), the values for the concentration for half-maximal inhibition (IC50) in test [1] and in test [3] were 25 µM and 7 µM, respectively. In addition, the Activity in test [2] is on record as 82.97%.

For `C=C1C(=O)O[C@@H]2[C@H]1CC[C@H](C)[C@]1(O)C=C(CO)C(=O)[C@@]21C`, the IC50 in test [1] stood at 65 µM; in test [3], 16 µM. Also, the Activity in test [2] was 3.01%.

As to `C=C1C(=O)O[C@@H]2[C@H]1CC[C@H](C)[C@]13OCO[C@H]1CC(=O)[C@@]23C`, the results for the IC50 in test [1] and in test [3] were 65 µM and 49 µM, respectively. The Activity in test [2] is reported as 2.86%.

Regarding `C=C1C(=O)O[C@@H]2[C@H]1CC[C@H](C)[C@]13OCO[C@H]1C(CO)(CO)C(=O)[C@@]23C`, the IC50 is 70 µM in test [1] and 17 µM in test [3]. Besides, in test [2], the Activity was 2.61%.

Regarding `C=C1C(=O)O[C@@H]2[C@H]1CC[C@H](C)[C@]13OC(c4ccc(OC)c(OC)c4)O[C@H]1/C(=C/c1ccc(OC)c(OC)c1)C(=O)[C@@]23C` (some centres undefined), the values for the IC50 in test [1] and in test [3] were 32 µM and 6 µM, respectively. Moreover, the Activity in test [2] is given as 81.38%.

Regarding `C=C1C(=O)O[C@@H]2[C@H]1CC[C@H](C)[C@]1(O)[C@H](O)CC(=O)[C@@]21C`, the half-maximal inhibitory concentration (IC50) amounted to 68 µM in test [1] and 50 µM in test [3]. Further, in test [2], the Activity turned out to be 1.17%.

Regarding `C=C1C(=O)O[C@@H]2[C@H]1CC[C@H](C)[C@]1(O)C=C(C(O)/C=C/c3ccccc3)C(=O)[C@@]21C` (some centres undefined), the values for the 50% inhibitory concentration (IC50) in test [1] and in test [3] were 78 µM and 46 µM, respectively. Also, in test [2], the Activity was determined as 2.44%.

For `C=C1C(=O)O[C@@H]2[C@H]1CC[C@H](C)[C@]13OC(c4ccccc4)O[C@H]1/C(=C/c1ccccc1)C(=O)[C@@]23C` (some centres undefined), the results for the IC50 in test [1] and in test [3] were 31 µM and 6 µM, respectively. Besides, the Activity in test [2] is listed as 69.28%.
